Data published in publication PMC11249646, “Small-Molecule Disruptors of the Interaction between Calcium- and Integrin-Binding Protein 1 and Integrin αIIbβ3 as Novel Antiplatelet Agents” (ACS Pharmacology & Translational Science, 2024).
Read-outs that look alike come from different tables or passages of the source.

Columns and labels:
[1] = molecular target: T1, GST-CIB1 : F-scrambled peptide (Homo sapiens, UniProt Q99828); experiment: FP scrambled-peptide counter screen, 1536-well format; format: binding; conditions: for Curve Class (counterscreen) / COUNTERSCREEN Curve Class: qHTS curve class; for IC50: read-out: IC50 [μM] (counterscreen)
T1 construct: made in house; host or cells: BL-21 plus RIL cells (E. coli)
T1 sequence (Q99828 1-191): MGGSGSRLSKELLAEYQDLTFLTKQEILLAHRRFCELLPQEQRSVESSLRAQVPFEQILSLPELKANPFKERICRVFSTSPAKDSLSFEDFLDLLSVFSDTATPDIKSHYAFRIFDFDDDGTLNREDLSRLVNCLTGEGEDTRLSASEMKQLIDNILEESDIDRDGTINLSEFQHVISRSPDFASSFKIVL

[2] = molecular target: T2, CIB1 and αIIb interaction (CIB1-GST : F-αIIb peptide) (Homo sapiens, UniProt Q99828); experiment: FP assay, 1536-well qHTS format (primary and confirmatory screen); format: binding; conditions: for Curve Class (confirmatory screen) / CONFIRMATORY SCREEN Curve Class: qHTS curve class
T2 construct: made in house; host or cells: BL-21 plus RIL cells (E. coli)
T2 sequence (Q99828 1-191): T1 sequence (Q99828 1-191)

[3] = Table S3, counterscreen, a negative sign marks inhibitory curves
[4] = Table S3, counterscreen, negative = inhibition
[5] = Table S3, confirmatory screen, YES/NO call
[6] = Table S3, confirmatory screen, a negative sign marks inhibitory curves
[7] = Table S3, confirmatory screen, negative = inhibition
[8] = qHTS FP screen hits, Table S2, negative = inhibition
[9] = qHTS FP screen hits, Table S2, one class per curve where COUNT > 1, negative sign = inhibitory curve
[10] = qHTS FP screen hits, Table S2, read-out: IC50
[11] = Table S3, confirmatory screen, read-out: IC50 [μM] (confirmatory screen)
[12] = qHTS primary screen hits, Table S2, negative = inhibition
[13] = qHTS primary screen hits, Table S2, negative sign = inhibitory curve, several classes where COUNT > 1
[14] = qHTS primary screen hits, Table S2, read-out: IC50
[15] = counterscreen, negative sign = inhibitory curve
[16] = confirmatory screen, negative sign = inhibitory curve
[17] = confirmatory screen, read-out: IC50 [μM] (confirmatory screen)
[18] = scrambled-peptide counterscreen
[19] = Table S3, counterscreen, YES/NO call

Compound | Curve Class (counterscreen) [1, 3] | Efficacy (%) (counterscreen) [1, 4] | IC50 ([1]; Table S3, counterscreen) [µM] | Curve Class (confirmatory screen) [2, 6] | Efficacy (%) (confirmatory screen) [2, 7] | Efficacy (%) [2, 8] [%] | Curve Class [2, 9] | IC50 [2, 10] [µM] | Efficacy (%) [2, 12] [%] | Curve Class [2, 13] | IC50 [2, 14] [µM] | Efficacy (%) (counterscreen) ([1]; counterscreen) | Curve Class (counterscreen) [1, 15] | Efficacy (%) (confirmatory screen) ([2]; confirmatory screen) | Confirm? (confirmatory screen) ([2]; confirmatory screen, YES/NO) | Curve Class (confirmatory screen) [2, 16] | IC50 ([1]; counterscreen) [µM] | IC50 [2, 17] [µM] | also measured
CN1CCc2ccc3c4c2[C@]1(C)Cc1cccc(c1-4)OCO3 [NCGC00168048-01] | -2.1 | -136 | 31.6 | -2.1 | -118 | -100 | -2.1 | 39.8 | – | – | – | – | – | – | – | – | – | – | Confirm? (confirmatory screen) [2, 5]: YES
O=C(NC1=CC(=O)[C@H]2O[C@H]2C1=O)c1ccccc1O [NCGC00168093-01] | -2.4 | -54 | 50.1 | -2.4 | -49 | – | – | – | -29 | -2.4 | 31.6 | – | – | – | – | – | – | – | Confirm? (confirmatory screen) [2, 5]: YES; IC50 [2, 11]: 56.2 µM
CNc1ccc(C(=O)Oc2cc(ON=[N+]([O-])N(C)C)c([N+](=O)[O-])cc2[N+](=O)[O-])cc1 [NCGC00168169-02] | – | – | – | – | – | -30 | -1.2 | 22.4 | – | – | – | -40 | -2.2 | -42 | YES | -1.2 | 39.8 | 14.1 | –
CCCCC(CC)CNC(=N)NC(=N)NCCCCCCNC(=N)NC(=N)NCC(CC)CCCC.Cl.Cl.Cl (stereo not shown) [NCGC00178352-06] | – | – | – | – | – | -55 | -1.2 | 22.4 | – | – | – | 93 | 3 | -86 | YES | -2.1 | 100 | 28.2 | Confirm? (counterscreen) ([1]; counterscreen, YES/NO): YES
CC1=C(O)C(=O)C=C2C1=CC=C1[C@@]2(C)CC[C@@]2(C)[C@@H]3C[C@](C)(C(=O)O)CC[C@]3(C)CC[C@]12C [NCGC00178913-04] | – | – | – | – | – | -84 | -3 | 34.1 | – | – | – | -107 | -2.1 | -135 | YES | -1.1 | 44.7 | 22.4 | –
C[C@@H]1CC[C@]2(C)C3(C)CC[C@@]2(OC3=O)[C@@]12C[C@H](c1ccoc1)OC2=O [NCGC00180662-03] | -1.2 | -44 | 8.9 | -1.2 | -44 | -33 | -1.2 | 10 | – | – | – | – | – | – | – | – | – | – | Confirm? (confirmatory screen) [2, 5]: YES; IC50 [2, 11]: 7.1 µM
O=C(NNC(=O)c1nc2ccccc2[nH]1)OCc1ccccc1 [NCGC00181216-01] | 4 | -28 | – | 4 | -25 | – | – | – | -24 | -2.4 | 22.4 | – | – | – | – | – | – | – | –
CC(C)(C)OC(=O)CC(=O)NNC(=O)c1nc2ccccc2[nH]1 [NCGC00181234-01] | – | – | – | – | – | – | – | – | -37 | – | 39.8 | – | – | – | – | – | – | – | COUNTERSCREEN Efficacy (%) ([1]; counterscreen): -21%; COUNTERSCREEN Curve Class ([1]; counterscreen): 4; CONFIRMATORY SCREEN Efficacy (%) ([2]; confirmatory screen): -10%; CONFIRMATORY SCREEN Curve Class ([2]; confirmatory screen): 4; Curve Class ([2]; qHTS primary screen hits, Table S2, negative sign = inhibitory curve): -2.4
Cc1cc2nc3ccc(N(C)C)cc3[s+]c2cc1N.Cl.[Cl-] [NCGC00181775-02] | – | – | – | – | – | – | – | – | -38 | -2.4 | 39.8 | -83 | -2.2 | -72 | YES | -2.2 | 44.7 | 22.4 | –
Cc1ccccc1NC(=O)CN1C(=O)N/C(=C\c2cn(-c3cccc(C(=O)O)c3)cn2)C1=O [NCGC00182400-01] | 4 | -14 | – | 4 | -21 | -24 | – | 11.2 | – | – | – | – | – | – | – | – | – | – | –
C=CCNc1oc(-c2ccc(Cl)cc2)nc1C#N.O=C(O)C(F)(F)F [NCGC00183412-01] | – | – | – | – | – | -54 | -2.2 | 50.1 | – | – | – | -30 | -1.2 | -72 | YES | -2.2 | 12.6 | 31.6 | –
NC(=O)C1CCN(c2nc(-c3ccccc3N)cs2)CC1.O=C(O)C(F)(F)F [NCGC00183555-01] | -1.4 | -31 | 28.2 | 4 | -21 | – | – | – | -77 | -2.2 | 39.8 | – | – | – | – | – | – | – | Confirm? (counterscreen) [1, 19]: YES
CC(=O)NC(c1cccs1)c1cc(Br)c2cccnc2c1O (stereo not shown) [NCGC00183685-02] | – | – | – | – | – | – | – | – | – | – | – | – | – | – | – | – | – | – | COUNTERSCREEN Efficacy (%) ([1]; counterscreen): -11%; COUNTERSCREEN Curve Class ([1]; counterscreen): 4; CONFIRMATORY SCREEN Efficacy (%) ([2]; confirmatory screen): -36%; CONFIRMATORY SCREEN Curve Class ([2]; confirmatory screen): 4

Continued, in another order:

Curve Class (counterscreen) [1, 3] | Efficacy (%) (counterscreen) [1, 4] | IC50 ([1]; Table S3, counterscreen) [µM] | Curve Class (confirmatory screen) [2, 6] | Efficacy (%) (confirmatory screen) [2, 7] | Efficacy (%) [2, 8] [%] | Curve Class [2, 9] | IC50 [2, 10] [µM] | Efficacy (%) [2, 12] [%] | Curve Class [2, 13] | IC50 [2, 14] [µM] | Efficacy (%) (counterscreen) ([1]; counterscreen) | Curve Class (counterscreen) [1, 15] | Efficacy (%) (confirmatory screen) ([2]; confirmatory screen) | Confirm? (confirmatory screen) ([2]; confirmatory screen, YES/NO) | Curve Class (confirmatory screen) [2, 16] | Compound | IC50 ([1]; counterscreen) [µM] | IC50 [2, 17] [µM] | also measured
– | – | – | – | – | – | – | – | -32 | -1.4 | 2.2 | – | – | – | – | – | O=S(=O)(c1ccc2nc(Cl)c(Cl)nc2c1)N1CCN(S(=O)(=O)c2c(F)cccc2F)CC1 [NCGC00182436-01] | – | – | COUNTERSCREEN Efficacy (%) [1, 18]: -18%; COUNTERSCREEN Confirm? ([1]; scrambled-peptide counterscreen, YES/NO call): YES; COUNTERSCREEN Curve Class [1, 18]: 4; CONFIRMATORY SCREEN Confirm? ([2]; confirmatory screen, YES/NO call): YES; CONFIRMATORY SCREEN Curve Class [2, 16]: -1.4; CONFIRMATORY SCREEN Efficacy (%) ([2]; confirmatory screen, negative = inhibition): -43%; IC50 ([2]; confirmatory screen, read-out: CONFIRMATORY SCREEN IC50): 5.6 µM
– | – | – | – | – | -66 | -2.2 | – | – | – | – | -61 | -2.2 | -109 | YES | -2.1 | O=C(O)c1ccc(-n2cccc2/C=C2\SC(=O)N(Cc3cccc(Cl)c3)C2=O)cc1 [NCGC00182735-01] | 56.2 | – | –
-1.2 | -77 | 12.6 | 4 | -33 | – | – | – | -34 | -2.4 | 35.5 | – | – | – | – | – | C/C(=C\c1ccc2c(c1)OCO2)C1Nc2cccc3cccc(c23)N1 [NCGC00182904-03] | – | – | Confirm? (counterscreen) [1, 19]: YES
-2.1 | -136 | 35.5 | -2.1 | -92 | – | – | – | -67 | -2.2 | 50.1 | – | – | – | – | – | COc1ccccc1Nc1cc2ccccc2c(O)n1 [NCGC00183215-01] | – | – | Confirm? (confirmatory screen) [2, 5]: YES; IC50 [2, 11]: 39.8 µM
– | – | – | – | – | -54 | -1.2 | 28.2 | – | – | – | -21 | 4 | -56 | YES | -2.4 | CCC(=O)NC(c1cccs1)c1cc(Br)c2cccnc2c1O (stereo not shown) [NCGC00183689-01] | – | 25.1 | Confirm? (counterscreen) ([1]; counterscreen, YES/NO): YES
